Reference: US20250120932A1, “PHARMACEUTICAL COMPOSITION” (NEUROPRO THERAPEUTICS, INC., priority 2021, published 2025)
Marks after values point to notes of the source that are not given here.

Experiments:
Assay type in all cases: physicochemical
[1] = Solubility at 50° C. in common SEDDS excipients by visual inspection
[2] = Nasal solution solubility evaluation in solvent/co-solvent systems (HPLC-UV); settings: organic solvent or mixture, thermodynamic from solid; Caprylocaproyl Polyoxylglycerides (Labrasol ALF), Composition 8
Description: The solvents were chosen from a group consisting of Caprylocaproyl Polyoxylglycerides (Labrasol ALF), propylene glycol, PEG-400, vitamin E TPGS, ethanol, water, and any combination thereof.
50 g stock solutions of each solvent system were prepared. The active solutions 3.0 mL of each solvent was aliquoted to separate 8 mL clear glass vials. […] Every 30 minutes the solutions were inspected. […] This process was repeated until visible saturation of all solvent systems was obtained. Prior to analysis, the samples were centrifuged at 5,000 RPM for 3 minutes and filtered through a 0.45 μm nylon syringe filter to remove excess solids.
The dose calculations included in Table 42 are based on 75% of the concentration at saturation. This is to reduce the risk of precipitation/crystallization due to environmental fluctuations. Additionally, two dose volumes (0.2/0.5 mL) were selected in accordance with the standard range for nasal delivery. The total dose illustrated is based on the equivalent volume delivered to each nostril, 0.4-1.0 mL total per dose.

[3] = Solubility in 1:1 mixture of Gelucire 44/14 and Span 80 (tablet solubilizer)
Description: After successful completion of the dry blend tablet formulation, efforts were made to attempt to enhance solubilization of the drug. Upon successful creation of the tablet prototype batch A, the tablet prototype batch B was developed wherein Bumetanide Dibenzylamide solubilizers were incorporated directly into the dry blend tablet formulation. […] The 1:1 ratio of Lauroyl Polyoxyl-32 Glycerides (Gelucire 44/14), to Sorbitan Ester (Span 80), was determined by combined melting point, taste, viscosity, and solubilizing ability. The ratio provided a semi-solid, which may be liquefied upon application of low heat. […] This mixture was kept under constant stirring to ensure complete even dispersal of ingredients. Continuing under constant heating and mixing, Neusilin US2 (Magnesium Aluminometasilicate) was slowly added to adsorb the viscous mixture onto its particles rough surface. Upon complete adsorption the heat was removed with continued mixing until room temperature was reached. The cooled, hot-melt granulation was then sieved and blended with sieved Polyplasdone XL (Super Disintegrate), Cabosil M5P (fumed silica), and Citric Acid Monohydrate, and Magnesium Stearate. Table 58 illustrates the formulation employed for a sublingual tablet prototype batch B, which was utilized for canine studies. […]

[4] = Solubility in injection vehicle compositions; settings: 40% PEG-400, 20% Propylene glycol, 5% Ethanol, 35% water
Text: Multiple vehicle compositions were investigated, resulting in a clear dosing solution or suspension at the time of the preparation or shortly after the preparation. Vehicles tested included 55% Polyethylene glycol 400 (PEG-400) in water, 41% PEG-400, 12% Ethanol, 47% water, 45% PEG-400, 10% DMSO, 45% Water, 31% PEG-400, 31% Tetraglycol, 15% Caprylocaproyl Polyoxylglycerides (Labrasol ALF), 23% water, 30% PEG-400, 10% N-Methyl Pyrrolidone, 10% DMSO, 50% water, 25% PEG-400, 10% DMSO, 20% Tetraglycol, 45% water, 20% Ethanol in water, 20% Hydroxypropyl-β-Cyclodextrin in water, 11% DMSO, 22% PEG-400, 22% Tetraglycol, 44% water, 44% PEG-400, 0.4% Poloxamer-188, 22% N-Methyl Pyrrolidone, 33% water, and 20% PEG-400, 15% Hydroxypropyl-β-Cyclodextrin in water.
After filtration with a 0.22 μm PVDF filter, the sample stayed clear for up to 7 days. The compositions selected for animal studies are described in Table 67 and Table 68.

[5] = Prototype capsule (SEDDS) development: solubilization and dispersion test in water; settings: capsule compositions with long chain triglycerides and 0 to 4.68% w/w ethanol
Description: Prototype capsule formulations were developed at a less than 2-gram scale. […] The oil phase was then added to the formulations and stirred until the solution became clear. The solutions were cooled to room temperature while stirring and co-solvent was then added (if applicable).
To test if the composition created macro-dispersions or micro-dispersions, about 30 mg of formulation was added into 1.0 g of water and lightly swirled. The resultant dispersion was visually characterized. SEDDS (macroemulsions) are typically characterized as an opaque milky white uniform liquid, and SEDDS (microemulsions) are characterized by a clear, isotropic, transparent solution with opalescence. […] Compositions 4 and 6 were selected for future development work, and the intermediate stability of those compositions was evaluated as described below.

Bumetanide Dibenzylamide, in solution ([1]; Captex 300 (Caprylic/Capric Triglyceride, Medium Chain Triglyceride), 50° C.): <1* mg/ml | Bumetanide Dibenzylamide, in solution ([1]; Drakeol 6VR LT (Mineral Oil), 50° C.): <1* mg/ml | Bumetanide Dibenzylamide, in solution ([1]; Kolliphor EL (Polyoxyl 35 castor oil), 50° C.): 13.5 mg/mL | Bumetanide Dibenzylamide, in solution ([1]; Labrafac Lipophile WL 1349 (Medium Chain Triglyceride), 50° C.): 3 mg/mL | Bumetanide Dibenzylamide, in solution ([1]; Labrafil M 1944CS (Oleoyl polyoxyl 1-6 glycerides), 50° C.): 4.5 mg/mL | Bumetanide Dibenzylamide, in solution ([1]; Labrasol ALF (Caprylocaproyl Polyoxylglycerides), 50° C.): 63 mg/mL | Bumetanide Dibenzylamide, in solution ([1]; Lauroyl Plyoxyl-32 Glycerides (Gelucire 44/14), 50° C.): 106 mg/mL | Bumetanide Dibenzylamide, in solution ([1]; Oleic Acid, 50° C.): <1* mg/ml | Bumetanide Dibenzylamide, in solution ([1]; Oleyl Alcohol, 50° C.): <1* mg/ml | Bumetanide Dibenzylamide, in solution ([1]; Polyethylene Glycol 400, 50° C.): 8.6 mg/mL | Bumetanide Dibenzylamide, in solution ([1]; Propylene Glycol, 50° C.): 2 mg/mL | Bumetanide Dibenzylamide, in solution ([1]; Sorbitan Ester (Span 80), 50° C.): 250 mg/mL | Bumetanide Dibenzylamide, in solution ([1]; Soybean Oil, 50° C.): 2 mg/mL | solubility at 8 h [2]: ~66 mg/mL | solubility [3]: approximately 500 mg/g | time sample stayed clear after filtration ([4]; 0.22 μm PVDF filter): up to 7 days | time as clear solution ([4]; room temperature): at least 3 hours | maximum solubility of Bumetanide Dibenzylamide [5]: about 1.8 % w/w
SMILES: CCCCNc1cc(C(=O)N(Cc2ccccc2)Cc2ccccc2)cc(S(N)(=O)=O)c1Oc1ccccc1 [Bumetanide Dibenzylamide, N, N-dibenzyl 3-aminosulfonyl-5-butylamino-4-phenoxybenzamide]
